In US20200138822A1, “TOPICAL COMPOSITIONS COMPRISING PENTOXIFYLLINE AND METHODS OF TREATMENT USING THE SAME” (priority 2018, published 2020):

Tests used:
[1] = test system: oral ulcers of BD patients; experiment: Randomized, open-label clinical study: index ulcer healing (ulcer area by digital image processing); type: in vivo, human
Method: (§1) A randomized, open-label, proof-of-concept clinical study was conducted under an FDA Investigational New Drug Application (IND). […] The CLC was administered orally as a pill and dosed as determined by the subject's physician. No less than every 48 hours, subjects' ulcers were photographed and examined using digital image processing to determine ulcer area, over a period of 14 days, which include daily collection of adverse events, ulcer number, and pain scores.
(§2) Inclusion criteria required the recent (<2 days) appearance of a new oral ulcer. Patients on immunosuppressant therapies were excluded from the study.
Patients were contacted daily for 14 consecutive days and were examined in-person no less than every 48 hours except for weekends. On the first day of entry into the study, the largest ulcer was identified and photographed as the “index ulcer”; its location was recorded and it was subsequently photographed at every in-person visit. Photographs were made with a paper ruler showing millimeter graduations lain in the same plane as the ulcer itself. Graphical processing software was used to compute the ulcer area in square millimeters; this software was calibrated from the paper ruler image and required drawing a line around the image of the ulcer margin.
Then, the proportion of patients with undetectable index ulcer (defined as those with an ulcer area of less than 1 mm^2) at day 4 was compared. Lastly, the trend in mean ulcer area over 14 days was compared as well as the results' sensitivity to outliers.

[2] = test system: oral ulcers of BD patients; experiment: Randomized, open-label clinical study: daily average number of oral ulcers; type: in vivo, human; conditions: during the two-week treatment period; mean +/- SD
Method: as §1, §2
The total number of oral ulcers were also counted at each in-person visit, and the daily average number of oral ulcers were calculated during the treatment period.

BD patients = experiment: Randomized, open-label clinical study: adverse events / safety; conditions: 14-day study
Method: as §1, §2
All adverse events were reviewed in real time by the treating physician investigator.

[3] = times greater than PTX; cited from earlier work
[4] = Day 2, PTX+CLC n = 18, CLC n = 21
[5] = Day 4 clearance, undetectable = ulcer area less than 1 mm^2, n = 18 / n = 21

## COc1cc2c(c(OC)c1OC)-c1ccc(OC)c(=O)cc1[C@@H](NC(C)=O)CC2 [CLC, colchicine]
[1]; [4]
  Patients with Index Ulcer Growth - %: (80%)
  Patients with Index Ulcer Growth - Number: 16
  Patients with Index Ulcer Shrinkage - %: (19%)
  Patients with Index Ulcer Shrinkage - Number: 4
[1]; Day 2, PTX+CLC n = 18, CLC n = 21, listed as CLC-only
  Patients with Index Ulcer Shrinkage - %: 19%
[1]; Day 4, n = 18 / n = 21
  Patients with Remaining Ulcers - %: (71%)
  Patients with Remaining Ulcers - Number: 15
[1]; [5]
  Patients with Undetectable Ulcers - %: (29%)
  Patients with Undetectable Ulcers - Number: 6
[1]; Day 4 clearance, undetectable = ulcer area less than 1 mm^2, n = 18 / n = 21, listed as CLC-only
  Patients with Undetectable Ulcers - %: 29%
[1]; FIG. 1, over 14 days from day zero
  Mean index ulcer area by treatment group (trend): first growing then slowly decreasing
[2]
  Daily average number of oral ulcers: 1.89+/−1.36
BD patients
  Serious adverse events: No serious adverse events occurred
BD patients; adverse event
  Dysgeusia - % of patients: 0%
  Dysgeusia - number of patients: 0
  Limited dermal rashes - % of patients: 29%
  Limited dermal rashes - number of patients: 6
  Nausea - % of patients: 10%
  Nausea - number of patients: 2
  Vomiting - number of patients: none

## CC(O)CCCCn1c(=O)c2c(ncn2C)n(C)c1=O (stereo not shown) [Metabolite 1, 1-[5-hydroxyhexyl]-3,7-dimethylxanthine]
[3]
  Plasma levels of metabolite relative to PTX: five

## Cn1cnc2c1c(=O)n(CCCC(=O)O)c(=O)n2C [Metabolite V, 1-[3-carboxypropyl]-3,7-dimethylxanthine]
[3]
  Plasma levels of metabolite relative to PTX: eight
